According to patent US20230138851A1, “NOVEL ALKYNE DERIVATIVES” (CARNA BIOSCIENCES, INC., priority 2020, published 2023):

Key:
Type in all cases: biochemical
DYRK3 = biological target: T1, DYRK3 (Homo sapiens, UniProt O43781); experiment: Inhibition test on activity of DYRK family, mobility shift assay (MSA), DYRK3; settings: ATP 20 μM, FITC-labeled DYRKtide peptide substrate, room temperature 1 hour; for IC50: read-out: Inhibitory Activity 3 (IC50 against DYRK3)
T1 construct: purchased Carna Biosciences, Inc. 04-133
T1 sequence (O43781 1-588): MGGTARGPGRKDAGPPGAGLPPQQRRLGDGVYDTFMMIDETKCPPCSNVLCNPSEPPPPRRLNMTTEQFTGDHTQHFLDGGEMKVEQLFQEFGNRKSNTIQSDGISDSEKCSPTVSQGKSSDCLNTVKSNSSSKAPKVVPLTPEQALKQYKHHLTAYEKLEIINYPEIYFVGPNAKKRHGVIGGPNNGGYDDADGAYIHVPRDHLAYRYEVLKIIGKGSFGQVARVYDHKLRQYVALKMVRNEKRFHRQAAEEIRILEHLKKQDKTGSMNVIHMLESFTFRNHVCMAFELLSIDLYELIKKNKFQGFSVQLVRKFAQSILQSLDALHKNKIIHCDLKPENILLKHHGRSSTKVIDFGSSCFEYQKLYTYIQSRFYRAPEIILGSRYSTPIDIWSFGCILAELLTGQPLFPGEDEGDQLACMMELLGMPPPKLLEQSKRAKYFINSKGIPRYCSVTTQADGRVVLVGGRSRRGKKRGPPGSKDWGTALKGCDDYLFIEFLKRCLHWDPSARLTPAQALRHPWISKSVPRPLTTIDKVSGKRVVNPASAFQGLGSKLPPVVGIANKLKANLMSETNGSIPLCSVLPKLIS
Outline: (§1)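 FITC-DYRKtide phosphorylation in 20 mM HEPES pH 7.5 with MgCl2; ATP in the substrate mix was 100 μM (DYRK1A), 200 μM (DYRK1B), 40 μM (DYRK2) or 20 μM (DYRK3). Reactions ran 1 h at room temperature; inhibition from P/(P+S) versus blank and DMSO control, IC50 by regression on log concentration.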

DYRK2 = biological target: T2, DYRK2 (Homo sapiens, UniProt Q92630); experiment: Inhibition test on activity of DYRK family, mobility shift assay (MSA), DYRK2; settings: ATP 40 μM, FITC-labeled DYRKtide peptide substrate, room temperature 1 hour; for IC50: read-out: Inhibitory Activity 2 (IC50 against DYRK2)
T2 construct: purchased Carna Biosciences, Inc. 04-132
T2 sequence (Q92630 1-601): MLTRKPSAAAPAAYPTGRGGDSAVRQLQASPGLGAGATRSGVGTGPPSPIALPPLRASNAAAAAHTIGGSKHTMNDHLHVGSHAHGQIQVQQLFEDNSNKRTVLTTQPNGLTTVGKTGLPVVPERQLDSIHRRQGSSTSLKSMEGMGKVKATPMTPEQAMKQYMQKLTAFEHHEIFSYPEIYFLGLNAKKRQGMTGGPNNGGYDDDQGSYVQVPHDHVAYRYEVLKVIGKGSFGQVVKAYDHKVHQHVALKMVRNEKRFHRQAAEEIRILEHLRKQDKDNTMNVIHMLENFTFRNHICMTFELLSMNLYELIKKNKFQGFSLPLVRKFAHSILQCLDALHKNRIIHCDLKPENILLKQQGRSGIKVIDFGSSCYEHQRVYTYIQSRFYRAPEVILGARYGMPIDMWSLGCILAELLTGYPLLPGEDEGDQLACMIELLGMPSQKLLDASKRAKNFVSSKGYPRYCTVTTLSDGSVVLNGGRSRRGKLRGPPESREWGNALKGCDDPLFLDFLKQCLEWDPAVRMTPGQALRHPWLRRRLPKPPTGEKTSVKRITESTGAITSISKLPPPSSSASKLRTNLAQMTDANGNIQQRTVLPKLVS
Outline: as §1

DYRK1A = biological target: T3, DYRK1A (Homo sapiens, UniProt Q13627); experiment: Inhibition test on activity of DYRK family, mobility shift assay (MSA), DYRK1A; settings: ATP 100 μM, FITC-labeled DYRKtide peptide substrate, room temperature 1 hour; for IC50: read-out: Inhibitory Activity 1a (IC50 against DYRK1A)
T3 construct: purchased Carna Biosciences, Inc. 04-130
Outline: as §1

| Compound | IC50 (DYRK3) [µM] | IC50 (DYRK2) [µM] | Inhibitory Activity 1a (IC50 against DYRK1A) (DYRK1A) | IC50 (DYRK1A) [µM] | Inhibitory Activity 2 (IC50 against DYRK2) (DYRK2) | Inhibitory Activity 3 (IC50 against DYRK3) (DYRK3) |
| --- | --- | --- | --- | --- | --- | --- |
| CC#C[C@H]1[C@H](CC)NC(=O)N1c1nc2c3c(ccc2s1)OCC3 (single isomer, unassigned) [Example 71, trans-1-(7,8-dihydrobenzofuro[4,5-d]thiazol-2-yl)-4-ethyl-5-(prop-1-yn-1-yl)imidazolidin-2-one] | 0.1 to 1 | ≥ 1 | * * * | – | – | – |
| CC#C[C@H]1[C@H](CC)NC(=O)N1c1nc2c3c(ccc2s1)OCC3 (single isomer, unassigned) [Example 72, trans-1-(7,8-dihydrobenzofuro[4,5-d]thiazol-2-yl)-4-ethyl-5-(prop-1-yn-1-yl)imidazolidin-2-one] | ≥ 1 | ≥ 1 | – | 0.1 to 1 | – | – |
| CC#C[C@@H]1[C@H](COC)NC(=O)N1c1nc2c3c(ccc2s1)OCC3 (single isomer, unassigned) [Example 75, cis-1-(7,8-dihydrobenzofuro[4,5-d]thiazol-2-yl)-4-(methoxymethyl)-5-(prop-1-yn-1-yl)imidazolidin-2-one] | ≥ 1 | ≥ 1 | – | 0.1 to 1 | – | – |
| CC#C[C@H]1[C@H](COC)NC(=O)N1c1nc2c3c(ccc2s1)OCC3 (single isomer, unassigned) [Example 76, trans-1-(7,8-dihydrobenzofuro[4,5-d]thiazol-2-yl)-4-(methoxymethyl)-5-(prop-1-yn-1-yl)imidazolidin-2-one] | ≥ 1 | ≥ 1 | * * | – | – | – |
| CC#C[C@H]1[C@H](COC)NC(=O)N1c1nc2c3c(ccc2s1)OCC3 (single isomer, unassigned) [Example 77, trans-1-(7,8-dihydrobenzofuro[4,5-d]thiazol-2-yl)-4-(methoxymethyl)-5-(prop-1-yn-1-yl)imidazolidin-2-one] | ≥ 1 | ≥ 1 | * * | – | – | – |
| CC#C[C@H]1[C@H](CF)NC(=O)N1c1nc2c3c(ccc2s1)OCC3 (single isomer, unassigned) [Example 78, trans-1-(7,8-dihydrobenzofuro[4,5-d]thiazol-2-yl)-4-(fluoromethyl)-5-(prop-1-yn-1-yl)imidazolidin-2-one] | 0.1 to 1 | – | – | < 0.01 | * * | – |
| CC#C[C@H]1[C@H](CF)NC(=O)N1c1nc2c3c(ccc2s1)OCC3 (single isomer, unassigned) [Example 79, trans-1-(7,8-dihydrobenzofuro[4,5-d]thiazol-2-yl)-4-(fluoromethyl)-5-(prop-1-yn-1-yl)imidazolidin-2-one] | ≥ 1 | ≥ 1 | – | 0.1 to 1 | – | – |
| CC#C[C@H]1[C@H](C)NC(=O)N1c1nc2c3c(ccc2s1)OCC3 [Example 4, (4S,5S)-1-(7,8-dihydrobenzofuro[4,5-d]thiazol-2-yl)-4-methyl-5-(prop-1-yn-1-yl)imidazolidin-2-one] | ≥ 1 | ≥ 1 | – | ≥ 1 | – | – |
| CC#C[C@@H]1[C@@H](C)NC(=O)N1c1nc2c3c(ccc2s1)OCC3 [Example 16, (4R,5R)-1-(7,8-dihydrobenzofuro[4,5-d]thiazol-2-yl)-4-methyl-5-(prop-1-yn-1-yl)imidazolidin-2-one] | 0.1 to 1 | ≥ 1 | * * * | – | – | – |
| CC#C[C@H]1[C@@H](C)NC(=O)N1c1nc2c3c(ccc2s1)OCC3 [Example 17, (4R,5S)-1-(7,8-dihydrobenzofuro[4,5-d]thiazol-2-yl)-4-methyl-5-(prop-1-yn-1-yl)imidazolidin-2-one] | ≥ 1 | ≥ 1 | – | 0.1 to 1 | – | – |
| CC#C[C@H]1[C@H](C(C)C)NC(=O)N1c1nc2c3c(ccc2s1)OCC3 [Example 67, (4S,5S)-1-(7,8-dihydrobenzofuro[4,5-d]thiazol-2-yl)-4-isopropyl-5-(prop-1-yn-1-yl)imidazolidin-2-one] | ≥ 1 | ≥ 1 | – | ≥ 1 | – | – |
| CC#C[C@@H]1[C@H](C(C)C)NC(=O)N1c1nc2c3c(ccc2s1)OCC3 [Example 68, (4S,5R)-1-(7,8-dihydrobenzofuro[4,5-d]thiazol-2-yl)-4-isopropyl-5-(prop-1-yn-1-yl)imidazolidin-2-one] | 0.1 to 1 | ≥ 1 | * * * | – | – | – |
| CC#C[C@H]1[C@H]([C@@H](C)O)NC(=O)N1c1nc2c3c(ccc2s1)OCC3 [Example 81, (4R,5S)-1-(7,8-dihydrobenzofuro[4,5-d]thiazol-2-yl)-4-((R)-1-hydroxyethyl)-5-(prop-1-yn-1-yl)imidazolidin-2-one] | ≥ 1 | ≥ 1 | – | 0.1 to 1 | – | – |
| CC#C[C@H]1[C@H]([C@H](C)O)NC(=O)N1c1nc2c3c(ccc2s1)OCC3 [Example 83, (4R,5S)-1-(7,8-dihydrobenzofuro[4,5-d]thiazol-2-yl)-4-((S)-1-hydroxyethyl)-5-(prop-1-yn-1-yl)imidazolidin-2-one] | ≥ 1 | ≥ 1 | – | 0.01 to 0.1 | – | – |

Other lines, results leading:

| IC50 (DYRK3) [µM] | IC50 (DYRK2) [µM] | Inhibitory Activity 1a (IC50 against DYRK1A) (DYRK1A) | IC50 (DYRK1A) [µM] | Inhibitory Activity 2 (IC50 against DYRK2) (DYRK2) | Inhibitory Activity 3 (IC50 against DYRK3) (DYRK3) | Compound |
| --- | --- | --- | --- | --- | --- | --- |
| 0.1 to 1 | 0.1 to 1 | * * * | – | – | – | CC#C[C@@H]1[C@H](COC)NC(=O)N1c1nc2c3c(ccc2s1)OCC3 (single isomer, unassigned) [Example 74, cis-1-(7,8-dihydrobenzofuro[4,5-d]thiazol-2-yl)-4-(methoxymethyl)-5-(prop-1-yn-1-yl)imidazolidin-2-one] |
| 0.1 to 1 | 0.1 to 1 | * * * | – | – | – | CC#C[C@@H]1[C@H](C)NC(=O)N1c1nc2c3c(ccc2s1)OCO3 [Example 23, (4S,5R)-1-([1,3]dioxolo[4′,5′:5,6]benzo[1,2-d]thiazol-7-yl)-4-methyl-5-(prop-1-yn-1-yl)imidazolidin-2-one] |
| 0.1 to 1 | 0.1 to 1 | * * * | – | – | – | CC#C[C@@H]1[C@H](C)NC(=O)N1c1nc2c3c(ccc2s1)OCCO3 [Example 56, (4S,5R)-1-(7,8-dihydro-[1,4]dioxino[2′,3′:5,6]benz[1,2-d]thiazol-2-yl)-4-methyl-5-(prop-1-yn-1-yl)imidazolidin-2-one] |
| 0.1 to 1 | 0.1 to 1 | * * * | – | – | – | CC#C[C@@H]1[C@H](C)NC(=O)N1c1nc2c3c(ccc2s1)OCCC3 [Example 57, (4S,5R)-1-(8,9-dihydro-7H-chromeno[5,6-d]thiazol-2-yl)-4-methyl-5-(prop-1-yn-1-yl)imidazolidin-2-one] |
| – | 0.1 to 1 | * * * | – | – | * * | [2H]C1([2H])Oc2ccc3sc(N4C(=O)NC[C@H]4C#CC)nc3c2O1 [Example 62, (R)-1-([1,3]dioxolo[4′,5′:5,6]benz[1,2-d]thiazol-7-yl-2,2-d2)-5-(prop-1-yn-1-yl)imidazolidin-2-one] |
| – | 0.1 to 1 | * * * | – | – | * * | CC#CC1C(CN)NC(=O)N1c1nc2c3c(ccc2s1)OCC3 (stereo not drawn) [Example 63, 4-(aminomethyl)-1-(7,8-dihydrobenzofuro[4,5-d]thiazol-2-yl)-5-(prop-1-yn-1-yl)imidazolidin-2-one] |
| – | 0.1 to 1 | * * * | – | – | * * | CC#C[C@@H]1[C@H]([C@@H](C)O)NC(=O)N1c1nc2c3c(ccc2s1)OCC3 [Example 82, (4R,5R)-1-(7,8-dihydrobenzofuro[4,5-d]thiazol-2-yl)-4-((R)-1-hydroxyethyl)-5-(prop-1-yn-1-yl)imidazolidin-2-one] |
